The text below walks through data of US8765773B2, “Substituted hydroxamic acids and uses thereof” (Millennium Pharmaceuticals, Inc., priority 2010, dated 2014).

This assay concerns the target T1, purified human HDAC6 (Homo sapiens, UniProt Q9UBN7).
T1 construct: purchased BPS Bioscience 5006
T1 sequence (Q9UBN7 1-1215): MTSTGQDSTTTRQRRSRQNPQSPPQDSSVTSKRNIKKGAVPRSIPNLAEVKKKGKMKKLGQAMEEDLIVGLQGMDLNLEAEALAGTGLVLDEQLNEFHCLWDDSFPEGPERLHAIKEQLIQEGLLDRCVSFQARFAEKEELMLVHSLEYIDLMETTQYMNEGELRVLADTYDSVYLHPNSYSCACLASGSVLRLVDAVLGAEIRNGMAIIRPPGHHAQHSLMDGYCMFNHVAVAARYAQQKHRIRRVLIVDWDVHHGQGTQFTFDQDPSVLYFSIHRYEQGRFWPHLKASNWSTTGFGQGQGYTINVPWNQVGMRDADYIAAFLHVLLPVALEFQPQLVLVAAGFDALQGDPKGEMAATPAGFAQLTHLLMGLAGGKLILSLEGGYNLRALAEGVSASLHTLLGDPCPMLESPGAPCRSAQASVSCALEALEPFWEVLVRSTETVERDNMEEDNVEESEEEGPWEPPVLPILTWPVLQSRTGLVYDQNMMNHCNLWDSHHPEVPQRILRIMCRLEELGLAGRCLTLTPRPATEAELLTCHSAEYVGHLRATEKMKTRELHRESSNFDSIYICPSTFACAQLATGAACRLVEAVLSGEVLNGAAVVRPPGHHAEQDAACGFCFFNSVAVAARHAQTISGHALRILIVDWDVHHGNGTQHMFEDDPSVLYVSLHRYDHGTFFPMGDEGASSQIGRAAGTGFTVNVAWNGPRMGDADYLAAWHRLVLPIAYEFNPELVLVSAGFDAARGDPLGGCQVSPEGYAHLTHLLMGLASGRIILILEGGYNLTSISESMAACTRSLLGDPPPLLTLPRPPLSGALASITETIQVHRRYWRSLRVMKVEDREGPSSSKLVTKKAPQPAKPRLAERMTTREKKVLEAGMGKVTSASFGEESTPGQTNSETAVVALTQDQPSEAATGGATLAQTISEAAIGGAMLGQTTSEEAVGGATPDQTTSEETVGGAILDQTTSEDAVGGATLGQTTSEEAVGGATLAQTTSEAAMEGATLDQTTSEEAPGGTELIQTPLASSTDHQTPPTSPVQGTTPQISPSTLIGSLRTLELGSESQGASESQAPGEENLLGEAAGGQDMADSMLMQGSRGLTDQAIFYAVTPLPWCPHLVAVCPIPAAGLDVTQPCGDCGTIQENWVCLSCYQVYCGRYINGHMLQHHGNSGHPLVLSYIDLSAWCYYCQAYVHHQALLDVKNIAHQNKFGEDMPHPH
Nature of the assay: HDAC6 Enzyme Assay. It is filed as biochemical. The conditions noted are these: read-out: Percent Inhibition; for inhibition at 0.412 µM: compound concentration 0.412 μM; for inhibition at 0.37 µM: compound concentration 0.37 μM. As to the method:
To measure the inhibition of HDAC6 activity, purified human HDAC6 (BPS Bioscience; Cat. No. 5006) is incubated with substrate Ac-Arg-Gly-Lys(Ac)-AMC peptide (Bachem Biosciences; Cat. No. I-1925) for 1 hour at 30° C. in the presence of test compounds or vehicle DMSO control. The reaction is stopped with the HDAC inhibitor trichostatin A (Sigma; Cat. No. T8552) and the amount of Arg-Gly-Lys-AMC generated is quantitated by digestion with trypsin (Sigma; Cat. No. T1426) and subsequent measurement of the amount of AMC released using a fluorescent plate reader (Pherastar; BMG Technologies) set at Ex 340 nm and Em 460 nm. Concentration response curves are generated by calculating the fluorescence increase in test compound-treated samples relative to DMSO-treated controls, and percentage inhibition values at a single concentration or enzyme inhibition (IC50) values are determined from those curves. One skilled in the art will appreciate that the values generated either as percentage inhibition at a single concentration or IC50 values are subject to experimental variation.

`O=C(NO)c1ccc2ccn(Cc3ccc(Cl)c(Cl)c3)c(=O)c2c1` [Compound I-1, 2-(3,4-dichlorobenzyl)-N-hydroxy-1-oxo-1,2-dihydroisoquinoline-7-carboxamide]: the inhibition at 0.412 µM was 95.9%.

Consider `O=C(NO)c1ccc2ccn(CC3CCNCC3)c(=O)c2c1` [Compound I-2, N-hydroxy-1-oxo-2-(piperidin-4-ylmethyl)-1,2-dihydroisoquinoline-7-carboxamide], for which the inhibition at 0.412 µM was determined as 82.2%.

Consider `COc1ccc(OCCCn2ccc3ccc(C(=O)NO)cc3c2=O)cc1` [Compound I-3, N-hydroxy-2-[3-(4-methoxyphenoxy)propyl]-1-oxo-1,2-dihydroisoquinoline-7-carboxamide], for which the inhibition at 0.412 µM came to 95.8%.

With `O=C(NO)c1ccc2ncn(C(c3ccccc3)c3ccccc3)c(=O)c2c1` [Compound I-4, 3-(diphenylmethyl)-N-hydroxy-4-oxo-3,4-dihydroquinazoline-6-carboxamide], the inhibition at 0.412 µM turned out to be 79.6%.

Regarding `O=C(NO)c1ccc2ccn(Cc3ccc4ccccc4c3)c(=O)c2c1` [Compound I-5, N-hydroxy-2-(2-naphthylmethyl)-1-oxo-1,2-dihydroisoquinoline-7-carboxamide], the inhibition at 0.412 µM came out at 96.5%.

On to `O=C(NO)c1ccc2c(=O)n(CCc3ccccn3)c(C3CCCCC3)nc2c1` [Compound I-6, 2-cyclohexyl-N-hydroxy-4-oxo-3-(2-pyridin-2-ylethyl)-3,4-dihydroquinazoline-7-carboxamide], for which the inhibition at 0.412 µM came out at 77.7%.

With `O=C(NO)c1ccc2ccn(Cc3c(Cl)cccc3Cl)c(=O)c2c1` [Compound I-7, 2-(2,6-dichlorobenzyl)-N-hydroxy-1-oxo-1,2-dihydroisoquinoline-7-carboxamide], the inhibition at 0.412 µM came out at 94.9%.

`CC(C)(C)C(=O)NCCCn1ccc2ccc(C(=O)NO)cc2c1=O` [Compound I-8, 2-{3-[(2,2-dimethylpropanoyl)amino]propyl}-N-hydroxy-1-oxo-1,2-dihydroisoquinoline-7-carboxamide]: the inhibition at 0.37 µM was 91.7%.

As for `CC(C)n1c(-c2ccccc2)nc2cc(C(=O)NO)ccc2c1=O` [Compound I-9, N-hydroxy-3-isopropyl-4-oxo-2-phenyl-3,4-dihydroquinazoline-7-carboxamide], the inhibition at 0.412 µM is 85%.

With `Cc1ccn(CCn2ccc3ccc(C(=O)NO)cc3c2=O)n1` [Compound I-10, N-hydroxy-2-[2-(3-methyl-1H-pyrazol-1-yl)ethyl]-1-oxo-1,2-dihydroisoquinoline-7-carboxamide], the inhibition at 0.412 µM amounted to 84.5%.

In the case of `O=C(NO)c1ccc2ccn(CCCc3ccccc3)c(=O)c2c1` [Compound I-11, N-hydroxy-1-oxo-2-(3-phenylpropyl)-1,2-dihydroisoquinoline-7-carboxamide], the inhibition at 0.412 µM was 97%.

In the case of `CC(c1ccccc1)n1cnc2ccc(C(=O)NO)cc2c1=O` (stereo not shown) [Compound I-12, N-hydroxy-4-oxo-3-(1-phenylethyl)-3,4-dihydroquinazoline-6-carboxamide], the inhibition at 0.37 µM was 99.2%.

As to `CCn1nccc1-c1nc2cc(C(=O)NO)ccc2c(=O)n1Cc1ccc(C(F)(F)F)cc1` [Compound I-13, 2-(1-ethyl-1H-pyrazol-5-yl)-N-hydroxy-4-oxo-3-[4-(trifluoromethyl)benzyl]-3,4-dihydroquinazoline-7-carboxamide], the inhibition at 0.37 µM was determined as 82.1%.

On to `O=C(NO)c1ccc2ccn(Cc3cccc(OC(F)(F)F)c3)c(=O)c2c1` [Compound I-14, N-hydroxy-1-oxo-2-[3-(trifluoromethoxy)benzyl]-1,2-dihydroisoquinoline-7-carboxamide], for which the inhibition at 0.412 µM amounted to 95.1%.

On to `CC(C)Nc1nc2cc(C(=O)NO)ccc2c(=O)n1C` [Compound I-15, N-hydroxy-2-(isopropylamino)-3-methyl-4-oxo-3,4-dihydroquinazoline-7-carboxamide], for which the inhibition at 0.412 µM came out at 32.7%.

With `O=C(NO)c1ccc2c(=O)n(Cc3cccc(C(F)(F)F)c3)cnc2c1` [Compound I-16, N-hydroxy-4-oxo-3-[3-(trifluoromethyl)benzyl]-3,4-dihydroquinazoline-7-carboxamide], the inhibition at 0.412 µM worked out at 95.8%.

`CC(C)(C)c1cccc(OCc2nc3cc(C(=O)NO)ccc3c(=O)[nH]2)c1` [Compound I-17, 2-[(3-tert-butylphenoxy)methyl]-N-hydroxy-4-oxo-3,4-dihydroquinazoline-7-carboxamide]: the inhibition at 0.412 µM was 30.6%.

Take `Cc1nc2cc(C(=O)NO)ccc2c(=O)[nH]1` [Compound I-18, N-hydroxy-2-methyl-4-oxo-3,4-dihydroquinazoline-7-carboxamide]: the inhibition at 0.412 µM was found to be 68.9%.

As to `O=C(NO)c1ccc2ccn(C(c3ccccc3)c3ccccc3)c(=O)c2c1` [Compound I-19, 2-(diphenylmethyl)-N-hydroxy-1-oxo-1,2-dihydroisoquinoline-7-carboxamide], the inhibition at 0.412 µM was found to be 94.4%.

Take `O=C(NO)c1ccc2ccn(CCCOc3cccc(OCc4ccccc4)c3)c(=O)c2c1` [Compound I-20, 2-{3-[3-(benzyloxy)phenoxy]propyl}-N-hydroxy-1-oxo-1,2-dihydroisoquinoline-7-carboxamide]: the inhibition at 0.412 µM came out at 83%.

For `O=C(NO)c1ccc2ccn(CCCOc3cccc4c3CCC4)c(=O)c2c1` [Compound I-21, 2-[3-(2,3-dihydro-1H-inden-4-yloxy)propyl]-N-hydroxy-1-oxo-1,2-dihydroisoquinoline-7-carboxamide], the inhibition at 0.412 µM worked out at 96.1%.

As for `O=C(NO)c1ccc2c(=O)n(CCOc3ccccc3)cnc2c1` [Compound I-22, N-hydroxy-4-oxo-3-(2-phenoxyethyl)-3,4-dihydroquinazoline-7-carboxamide], the inhibition at 0.412 µM turned out to be 96.4%.

In the case of `O=C(NO)c1ccc2ncn(Cc3cccc(-c4c(Cl)cccc4Cl)c3)c(=O)c2c1` [Compound I-23, 3-[(2′,6′-dichlorobiphenyl-3-yl)methyl]-N-hydroxy-4-oxo-3,4-dihydroquinazoline-6-carboxamide], the inhibition at 0.37 µM is 92.2%.

As for `O=C(NO)c1ccc2ccn(Cc3cccc(F)c3F)c(=O)c2c1` [Compound I-24, 2-(2,3-difluorobenzyl)-N-hydroxy-1-oxo-1,2-dihydroisoquinoline-7-carboxamide], the inhibition at 0.412 µM came out at 93.7%.

Consider `O=C(NO)c1ccc2ncn(CC3CC3)c(=O)c2c1` [Compound I-25, 3-(cyclopropylmethyl)-N-hydroxy-4-oxo-3,4-dihydroquinazoline-6-carboxamide], for which the inhibition at 0.412 µM is 84.7%.

Turning to `O=C(NO)c1ccc2c(=O)n(Cc3ccc(C(F)(F)F)cc3)c(-c3cccc4cccnc34)nc2c1` [Compound I-26, N-hydroxy-4-oxo-2-quinolin-8-yl-3-[4-(trifluoromethyl)benzyl]-3,4-dihydroquinazoline-7-carboxamide], the inhibition at 0.37 µM amounted to 92.3%.

With `Cc1nc(-c2ccccc2OCCn2ccc3ccc(C(=O)NO)cc3c2=O)cs1` [Compound I-27, N-hydroxy-2-{2-[2-(2-methyl-1,3-thiazol-4-yl)phenoxy]ethyl}-1-oxo-1,2-dihydroisoquinoline-7-carboxamide], the inhibition at 0.412 µM is 98.6%.

Regarding `O=C(NO)c1ccc2ncn(Cc3cccc(-c4ccccc4Cl)c3)c(=O)c2c1` [Compound I-28, 3-[(2′-chlorobiphenyl-3-yl)methyl]-N-hydroxy-4-oxo-3,4-dihydroquinazoline-6-carboxamide], the inhibition at 0.37 µM was found to be 85.5%.
